Values quoted from earlier work, collected in patent US20060257434A1, “Production of emulsions of pharmaceutical compositions” (priority 2005, published 2006).

Conditions: over a physiological pH range

solubility: less than 1 μg/ml
Compound: CCCn1c(=O)c2[nH]c(C34CC5CC(CC3C5)C4)nc2n(CCC)c1=O [KW-3902, 8-(3-noradamantyl)-1,3-dipropylxanthine]
